Results as given in the NIST ThermoML archive (doi:10.1021/acs.jced.8b00692).
Several values for one entry are separate records, joined by “and”; a condition that tells them apart may be missing. Identical values can stand only once.

Experiments:
[1] = Liquid; for viscosity: Concentric cylinders viscometry; for speed of sound: Single path-length method; for mass density: Vibrating tube method
[2] = xn = mol fraction of the nth substance listed; details: 102 kPa, Liquid, x2 = 0; for viscosity: Concentric cylinders viscometry; for speed of sound: Frequency=3 MHz, Single path-length method; for mass density: Vibrating tube method

CCCC1CCCCC1 [1-cyclohexylpropane]
[1], 102 kPa
Details	mass density [kg/m3]	viscosity [mPa·s]
293.15 K	793.54	0.996
303.15 K	785.73	0.86
313.15 K	777.9	0.75
323.15 K	770.04	0.663
333.15 K	762.12	0.584
343.15 K	754.2	0.544
353.15 K	746.1	0.477
363.15 K	738	0.452

[1], 102 kPa, Frequency=3 MHz
Details	speed of sound [m/s]
293.15 K	1307.8
303.15 K	1266.2
313.15 K	1225.6
323.15 K	1185.9
333.15 K	1147.3

CCCCCCCCCCC1CCCCC1 [decylcyclohexane]
[1], 102 kPa
Details	mass density [kg/m3]	viscosity [mPa·s]
293.15 K	818.55	5.32
303.15 K	811.78	4.09
313.15 K	805.02	3.23
323.15 K	798.27	2.62
333.15 K	791.5	2.16
343.15 K	784.8	1.82
353.15 K	778	1.55
363.15 K	771.2	1.34
373.15 K	764.4	1.17

[1], 102 kPa, Frequency=3 MHz
Details	speed of sound [m/s]
293.15 K	1406.7
303.15 K	1369.4
313.15 K	1333
323.15 K	1297.5
333.15 K	1262.9

CCCCCCCCCCCCC1CCCCC1 [dodecylcyclohexane]
[1], 102 kPa
Details	mass density [kg/m3]	viscosity [mPa·s]
293.15 K	822.31	7.76
303.15 K	815.65	5.81
313.15 K	809.01	4.48
323.15 K	802.37	3.55
333.15 K	795.74	2.88
343.15 K	789.1	2.39
353.15 K	782.5	2.01
363.15 K	775.9	1.72
373.15 K	769.2	1.48

[1], 102 kPa, Frequency=3 MHz
Details	speed of sound [m/s]
293.15 K	1423.3
303.15 K	1386.3
313.15 K	1350.4
323.15 K	1315.2
333.15 K	1281.1

CCCCCCCC1CCCCC1 [heptylcyclohexane]
[1], 102 kPa
Details	mass density [kg/m3]	viscosity [mPa·s]
293.15 K	810.99	2.8
303.15 K	803.96	2.26
313.15 K	796.93	1.86
323.15 K	789.89	1.56
333.15 K	782.83	1.33
343.15 K	775.8	1.15
353.15 K	768.7	0.993
363.15 K	761.6	0.892
373.15 K	754.4	0.776

[1], 102 kPa, Frequency=3 MHz
Details	speed of sound [m/s]
293.15 K	1374.4
303.15 K	1336.1
313.15 K	1298.7
323.15 K	1262.1
333.15 K	1226.5

CCCCCCCCCCCCCCCC [hexadecane]
[1]
Details	mass density, 102 kPa	speed of sound, 101.33 kPa [m/s]	viscosity, 102 kPa [mPa·s]
293.15 K	773.37 kg/m3	1357.4	3.47
303.15 K	766.43 kg/m3	1319.6	2.76
313.15 K	759.51 kg/m3	1282.9	2.24
323.15 K	752.61 kg/m3	1247	1.86
333.15 K	745.69 kg/m3	1212.1	1.56
343.15 K	738.78 kg/m3 and 738.8 kg/m3	–	1.35
353.15 K	731.9 kg/m3	–	1.15
363.15 K	724.9 kg/m3	–	1.02
373.15 K	717.9 kg/m3	–	0.885

CCCCCCCCCCCCCCCC [hexadecane] + CCCC1CCCCC1
[2]
Details	mass density [kg/m3]	speed of sound [m/s]	viscosity [mPa·s]
293.15 K	773.37	1357.4	3.47
303.15 K	766.43	1319.6	2.76
313.15 K	759.51	1282.9	2.24
323.15 K	752.61	1247	1.86
333.15 K	745.69	1212.1	1.56
343.15 K	738.78	–	1.35
353.15 K	731.9	–	1.15
363.15 K	724.9	–	1.02

CCCCCCCCCCCCCCCC [hexadecane] + CCCCCCC1CCCCC1
[2]
Details	mass density [kg/m3]	viscosity [mPa·s]
293.15 K	773.37	3.47
303.15 K	766.43	2.76
313.15 K	759.51	2.24
323.15 K	752.61	1.86
333.15 K	745.69	1.56
343.15 K	738.8	1.35
353.15 K	731.9	1.15
363.15 K	724.9	1.02

CCCCCCCCCCCCCCCC [hexadecane] + CCCCCCCC1CCCCC1
[2]
Details	mass density [kg/m3]	viscosity [mPa·s]
293.15 K	773.37	3.47
303.15 K	766.43	2.76
313.15 K	759.51	2.24
323.15 K	752.61	1.86
333.15 K	745.69	1.56
343.15 K	738.8	1.35
353.15 K	731.9	1.15
363.15 K	724.9	1.02
373.15 K	717.9	0.885
